Experimental data from patent US6737383B1, “Herbicidal oxadiazolidines” (priority 1999, dated 2004).

Columns and labels:
crabgrass = test: Test B pre/postemergence crabgrass; assay type: in vivo, Digitaria sanguinalis
How it was run: (§1)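 Test chemicals in a non-phytotoxic solvent mixture with surfactant were sprayed preemergence onto planted seeds and postemergence onto plants 2 to 18 cm tall (1- to 4-leaf stage). After twelve to sixteen days in a greenhouse, injury was visually rated against untreated controls from 0 (no effect) to 10 (complete control).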

bedstraw = test: Test B pre/postemergence bedstraw; assay type: in vivo, Galium aparine
How it was run: as §1

rape = test: Test B pre/postemergence rape; assay type: in vivo, Brassica napus
How it was run: as §1

wild oat = test: Test B pre/postemergence wild oat; assay type: in vivo, Avena fatua
How it was run: as §1

giant foxtail = test: Test B pre/postemergence giant foxtail; assay type: in vivo, Setaria faberii
How it was run: as §1

cocklebur = test: Test B pre/postemergence cocklebur; assay type: in vivo, Xanthium strumarium
How it was run: as §1

pigweed = test: Test B pre/postemergence pigweed; assay type: in vivo, Amaranthus retroflexus
How it was run: as §1

corn = test: Test B pre/postemergence corn; assay type: in vivo, Zea mays
How it was run: as §1

purple nutsedge = test: Test B pre/postemergence purple nutsedge; assay type: in vivo, Cyperus rotundus
How it was run: as §1

blackgrass = test: Test B pre/postemergence blackgrass; assay type: in vivo, Alopecurus myosuroides
How it was run: as §1

wheat = test: Test B pre/postemergence wheat; assay type: in vivo, Triticum aestivum
How it was run: as §1

soybean = test: Test B pre/postemergence soybean; assay type: in vivo, Glycine max
How it was run: as §1

sugar beet = test: Test B pre/postemergence sugar beet; assay type: in vivo, Beta vulgaris
How it was run: as §1

morningglory = test: Test B pre/postemergence morningglory; assay type: in vivo, Ipomoea hederacea
How it was run: as §1

velvetleaf = test: Test B pre/postemergence velvetleaf; assay type: in vivo, Abutilon theophrasti
How it was run: as §1

surinam grass = test: Test B pre/postemergence surinam grass; assay type: in vivo, Brachiaria decumbens
How it was run: as §1

[1] = Postemergence, Rate 125 g/ha, scale of 0 to 10 where 0 is no effect and 10 is complete control
[2] = Preemergence, Rate 62 g/ha, scale of 0 to 10 where 0 is no effect and 10 is complete control
[3] = Preemergence, Rate 125 g/ha, 0 is no effect, 10 is complete control
[4] = Preemergence, Rate 250 g/ha, scale 0 to 10, 0 is no effect, 10 is complete control
[5] = Preemergence, Rate 500 g/ha, scale 0 to 10 (0 no effect, 10 complete control)
[6] = Rate 62 g/ha, Postemergence, scale of 0 to 10 where 0 is no effect and 10 is complete control
[7] = Rate 250 g/ha, Postemergence, scale 0 to 10, 0 is no effect, 10 is complete control
[8] = Rate 500 g/ha, Postemergence, scale 0 to 10

Cc1ccccc1-n1c(=O)on(C(=O)N(c2ccc(Br)cc2)C(C)C)c1=O [Compound 175]
4: Morningglory plant response rating (morningglory; [8])
1: Soybean plant response rating (soybean; [1]) | Soybean plant response rating (soybean; [6]) | Plant response rating, Soybean (soybean; [7]) | Soybean plant response rating (soybean; [8]) | Morningglory plant response rating (morningglory; [1]) | Morningglory plant response rating (morningglory; [6])
2: Bedstraw plant response rating (0 to 10 scale) (bedstraw; [3]) | Plant response rating, Cocklebur (cocklebur; [7])
7: Giant foxtail plant response rating (0 to 10 scale) (giant foxtail; [3])
6: Crabgrass plant response rating (0 to 10 scale) (crabgrass; [3]) | Crabgrass plant response rating (crabgrass; [4])
5: Crabgrass plant response rating (crabgrass; [2]) | Giant foxtail plant response rating (giant foxtail; [2])
9: Bedstraw plant response rating (bedstraw; [4]) | Bedstraw plant response rating (bedstraw; [5])
0: Crabgrass plant response rating (crabgrass; [1]) | Crabgrass plant response rating (crabgrass; [6]) | Plant response rating, Crabgrass (crabgrass; [7]) | Crabgrass plant response rating (crabgrass; [8]) | Bedstraw plant response rating (bedstraw; [1]) | Bedstraw plant response rating (bedstraw; [2]) | Bedstraw plant response rating (bedstraw; [6]) | Plant response rating, Bedstraw (bedstraw; [7]) | Bedstraw plant response rating (bedstraw; [8]) | Rape plant response rating (rape; [1]) | Rape plant response rating (rape; [2]) | Rape plant response rating (0 to 10 scale) (rape; [3]) | Rape plant response rating (rape; [4]) | Rape plant response rating (rape; [5]) | Rape plant response rating (rape; [6]) | Plant response rating, Rape (rape; [7]) | Rape plant response rating (rape; [8]) | Wild oats plant response rating (wild oat; [2]) | Wild oats plant response rating (0 to 10 scale) (wild oat; [3]) | Wild oats plant response rating (wild oat; [4]) | Wild oats plant response rating (wild oat; [5]) | Plant response rating, Wild oats (wild oat; [7]) | Wild oats plant response rating (wild oat; [8]) | Giant foxtail plant response rating (giant foxtail; [1]) | Giant foxtail plant response rating (giant foxtail; [6]) | Plant response rating, Giant foxtail (giant foxtail; [7]) | Giant foxtail plant response rating (giant foxtail; [8]) | Cocklebur plant response rating (cocklebur; [1]) | Cocklebur plant response rating (cocklebur; [2]) | Cocklebur plant response rating (0 to 10 scale) (cocklebur; [3]) | Cocklebur plant response rating (cocklebur; [4]) | Cocklebur plant response rating (cocklebur; [5]) | Cocklebur plant response rating (cocklebur; [6]) | Redroot pigweed plant response rating (pigweed; [1]) | Redroot pigweed plant response rating (pigweed; [2]) | Redroot pigweed plant response rating (0 to 10 scale) (pigweed; [3]) | Redroot pigweed plant response rating (pigweed; [4]) | Redroot pigweed plant response rating (pigweed; [5]) | Redroot pigweed plant response rating (pigweed; [6]) | Plant response rating, Redroot pigweed (pigweed; [7]) | Redroot pigweed plant response rating (pigweed; [8]) | Corn plant response rating (corn; [1]) | Corn plant response rating (corn; [2]) | Corn plant response rating (0 to 10 scale) (corn; [3]) | Corn plant response rating (corn; [4]) | Corn plant response rating (corn; [5]) | Corn plant response rating (corn; [6]) | Plant response rating, Corn (corn; [7]) | Corn plant response rating (corn; [8]) | Nutsedge plant response rating (purple nutsedge; [1]) | Nutsedge plant response rating (purple nutsedge; [2]) | Nutsedge plant response rating (0 to 10 scale) (purple nutsedge; [3]) | Nutsedge plant response rating (purple nutsedge; [6]) | Plant response rating, Nutsedge (purple nutsedge; [7]) | Nutsedge plant response rating (purple nutsedge; [8]) | Blackgrass plant response rating (blackgrass; [1]) | Blackgrass plant response rating (blackgrass; [2]) | Blackgrass plant response rating (0 to 10 scale) (blackgrass; [3]) | Blackgrass plant response rating (blackgrass; [4]) | Blackgrass plant response rating (blackgrass; [5]) | Blackgrass plant response rating (blackgrass; [6]) | Plant response rating, Blackgrass (blackgrass; [7]) | Blackgrass plant response rating (blackgrass; [8]) | Wheat plant response rating (wheat; [2]) | Wheat plant response rating (0 to 10 scale) (wheat; [3]) | Wheat plant response rating (wheat; [4]) | Wheat plant response rating (wheat; [5]) | Plant response rating, Wheat (wheat; [7]) | Soybean plant response rating (soybean; [2]) | Soybean plant response rating (0 to 10 scale) (soybean; [3]) | Soybean plant response rating (soybean; [4]) | Soybean plant response rating (soybean; [5]) | Sugarbeets plant response rating (sugar beet; [1]) | Sugarbeets plant response rating (sugar beet; [2]) | Sugarbeets plant response rating (0 to 10 scale) (sugar beet; [3]) | Sugarbeets plant response rating (sugar beet; [4]) | Sugarbeets plant response rating (sugar beet; [5]) | Sugarbeets plant response rating (sugar beet; [6]) | Plant response rating, Sugarbeets (sugar beet; [7]) | Sugarbeets plant response rating (sugar beet; [8]) | Morningglory plant response rating (morningglory; [2]) | Morningglory plant response rating (0 to 10 scale) (morningglory; [3]) | Morningglory plant response rating (morningglory; [4]) | Morningglory plant response rating (morningglory; [5]) | Velvetleaf plant response rating (velvetleaf; [2]) | Velvetleaf plant response rating (0 to 10 scale) (velvetleaf; [3]) | Velvetleaf plant response rating (velvetleaf; [4]) | Velvetleaf plant response rating (velvetleaf; [5]) | B. signalgrass plant response rating (surinam grass; [1]) | B. signalgrass plant response rating (surinam grass; [2]) | B. signalgrass plant response rating (0 to 10 scale) (surinam grass; [3]) | B. signalgrass plant response rating (surinam grass; [4]) | B. signalgrass plant response rating (surinam grass; [5]) | B. signalgrass plant response rating (surinam grass; [6]) | Plant response rating, B. signalgrass (surinam grass; [7]) | B. signalgrass plant response rating (surinam grass; Rate 500 g/ha, Postemergence, scale 0 to 10, 0 no effect, 10 complete control)
8: Crabgrass plant response rating (crabgrass; [5]) | Giant foxtail plant response rating (giant foxtail; [4]) | Giant foxtail plant response rating (giant foxtail; [5])
3: Cocklebur plant response rating (cocklebur; [8]) | Nutsedge plant response rating (purple nutsedge; [4]) | Nutsedge plant response rating (purple nutsedge; [5]) | Wheat plant response rating (wheat; [8]) | Plant response rating, Morningglory (morningglory; [7]) | Plant response rating, Velvetleaf (velvetleaf; [7]) | Velvetleaf plant response rating (velvetleaf; [8])
